Test results taken from paper PMC7374938 (Journal of medicinal chemistry, 2017).
Structures can show the parent of a compound that is named as a salt.

Assays:
[1] = cited from earlier work
[2] = biological target: T1, human 5-HT2C-INI receptor (Homo sapiens, UniProt P28335); test: Calcium flux assay; type: cell-based; settings: for 5-HT2C EC50: Table 1, FLIPR calcium flux, calculated from averaged pEC50; for Emax: read-out: 5-HT2C Emax, Table 1, normalized to % 5-HT, mean ± SEM (n = 3), NA = no activity up to 10 μM
T1 sequence (P28335 33-458): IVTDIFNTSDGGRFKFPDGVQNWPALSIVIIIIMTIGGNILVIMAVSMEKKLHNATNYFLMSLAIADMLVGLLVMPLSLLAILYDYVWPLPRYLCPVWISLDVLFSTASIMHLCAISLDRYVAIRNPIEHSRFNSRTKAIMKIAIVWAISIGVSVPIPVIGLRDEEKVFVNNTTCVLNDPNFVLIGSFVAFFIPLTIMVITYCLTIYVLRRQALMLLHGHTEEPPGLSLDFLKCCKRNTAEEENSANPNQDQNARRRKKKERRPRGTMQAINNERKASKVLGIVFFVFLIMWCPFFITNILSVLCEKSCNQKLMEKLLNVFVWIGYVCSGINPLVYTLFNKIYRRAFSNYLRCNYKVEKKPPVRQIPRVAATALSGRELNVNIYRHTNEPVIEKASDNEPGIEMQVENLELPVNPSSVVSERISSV

[3] = biological target: T1, human 5-HT2C-INI receptor; test: Tango β-arrestin-2 recruitment assay; type: cell-based; settings: for β-arrestin recruitment activity: 5-HT2C
5-HT2B [4] = biological target: T2, 5-HT2B (Homo sapiens, UniProt P41595); test: Calcium flux assay; type: cell-based
T2 sequence (P41595 whole entry): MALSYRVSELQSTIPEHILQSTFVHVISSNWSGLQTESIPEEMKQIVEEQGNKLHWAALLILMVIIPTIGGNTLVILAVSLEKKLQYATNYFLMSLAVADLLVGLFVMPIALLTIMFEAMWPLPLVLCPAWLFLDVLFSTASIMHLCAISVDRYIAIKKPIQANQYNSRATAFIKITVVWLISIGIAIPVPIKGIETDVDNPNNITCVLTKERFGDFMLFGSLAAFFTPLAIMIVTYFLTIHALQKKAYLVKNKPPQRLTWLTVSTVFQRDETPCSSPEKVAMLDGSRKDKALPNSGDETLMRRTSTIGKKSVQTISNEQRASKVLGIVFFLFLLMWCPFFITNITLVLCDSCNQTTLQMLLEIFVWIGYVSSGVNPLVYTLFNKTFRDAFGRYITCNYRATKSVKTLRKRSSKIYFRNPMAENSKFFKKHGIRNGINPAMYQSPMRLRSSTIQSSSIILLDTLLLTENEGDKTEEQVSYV

5-HT2B [5] = biological target: T2, 5-HT2B; settings: cited from earlier work
5-HT2C [6] = biological target: T3, 5-HT2C (Homo sapiens, UniProt P28335); settings: cited from earlier work
T3 sequence (P28335 33-458): T1 sequence (P28335 33-458)

5-HT2A [7] = biological target: T4, 5-HT2A (Homo sapiens, UniProt P28223); settings: cited from earlier work
T4 sequence (P28223 whole entry): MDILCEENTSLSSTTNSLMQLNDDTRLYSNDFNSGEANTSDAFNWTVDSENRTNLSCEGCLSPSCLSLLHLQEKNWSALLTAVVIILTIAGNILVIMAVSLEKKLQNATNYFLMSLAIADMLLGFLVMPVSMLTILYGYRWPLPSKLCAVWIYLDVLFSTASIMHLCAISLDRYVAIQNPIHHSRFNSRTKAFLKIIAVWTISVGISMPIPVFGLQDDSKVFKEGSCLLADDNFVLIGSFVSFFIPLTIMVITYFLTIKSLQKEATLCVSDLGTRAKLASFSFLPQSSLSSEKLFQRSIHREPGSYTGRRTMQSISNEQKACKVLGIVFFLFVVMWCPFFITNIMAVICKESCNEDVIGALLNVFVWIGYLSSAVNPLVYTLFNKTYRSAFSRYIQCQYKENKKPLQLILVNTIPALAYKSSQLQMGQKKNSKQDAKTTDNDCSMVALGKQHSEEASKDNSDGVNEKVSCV

C57BL/6J mice [8] = test: Amphetamine; type: in vivo, mouse; settings: AMPH 3 mg/kg, 90 min
C57BL/6J mice [9] = test: Baseline; type: in vivo, mouse; settings: 0–15 min, male C57BL/6J mice
C57BL/6J mice [10] = test: Phencyclidine; type: in vivo, mouse; settings: PCP 5 mg/kg, 60 min
CYP2D6 = CYP2D6 (Homo sapiens, UniProt P10635); test: in vitro; settings: human liver microsomes, probe dextromethorphan
Sequence of CYP2D6 (P10635 whole entry): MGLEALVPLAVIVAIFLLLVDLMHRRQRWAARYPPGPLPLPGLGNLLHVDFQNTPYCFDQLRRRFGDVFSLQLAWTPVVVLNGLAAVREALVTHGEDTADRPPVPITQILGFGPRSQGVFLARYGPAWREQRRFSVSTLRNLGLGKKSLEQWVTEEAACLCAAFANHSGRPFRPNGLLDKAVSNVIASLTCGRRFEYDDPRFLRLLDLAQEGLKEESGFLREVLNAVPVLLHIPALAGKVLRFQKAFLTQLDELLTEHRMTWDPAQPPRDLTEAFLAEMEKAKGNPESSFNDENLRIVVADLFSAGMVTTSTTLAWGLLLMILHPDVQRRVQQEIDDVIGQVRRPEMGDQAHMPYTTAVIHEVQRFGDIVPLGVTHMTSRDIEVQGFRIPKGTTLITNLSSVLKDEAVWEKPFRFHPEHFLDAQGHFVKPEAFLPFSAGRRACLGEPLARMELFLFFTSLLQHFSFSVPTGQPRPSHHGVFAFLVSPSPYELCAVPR

[11] = system: serotonin receptors, dopamine receptors, monoamine transporters, and other selected CNS targets; test: Off-target binding panel; settings: panel of CNS targets
CYP3A4 = CYP3A4 (Homo sapiens, UniProt P08684); test: in vitro; settings: human liver microsomes, probe midazolam
Sequence of CYP3A4 (P08684 whole entry): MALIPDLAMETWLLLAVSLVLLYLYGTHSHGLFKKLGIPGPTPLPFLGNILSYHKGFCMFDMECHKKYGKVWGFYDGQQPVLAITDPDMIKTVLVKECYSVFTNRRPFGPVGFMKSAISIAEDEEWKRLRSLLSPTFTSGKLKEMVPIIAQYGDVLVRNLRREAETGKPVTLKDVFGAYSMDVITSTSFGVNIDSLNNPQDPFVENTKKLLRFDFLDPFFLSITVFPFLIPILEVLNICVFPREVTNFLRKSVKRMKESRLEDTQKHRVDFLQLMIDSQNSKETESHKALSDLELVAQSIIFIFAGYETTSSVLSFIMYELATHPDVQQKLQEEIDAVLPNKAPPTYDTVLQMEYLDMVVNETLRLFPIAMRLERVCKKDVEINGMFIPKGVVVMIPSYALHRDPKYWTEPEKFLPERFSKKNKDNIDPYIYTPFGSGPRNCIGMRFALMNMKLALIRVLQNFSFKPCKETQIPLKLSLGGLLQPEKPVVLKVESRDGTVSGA

5-HT2A [12] = biological target: T4, 5-HT2A; test: Calcium flux assay; type: cell-based; settings: read-out: 5-HT2A Emax
5-HT2C [13] = biological target: T3, 5-HT2C; test: Binding affinity

For `COc1cc(CC(C)N)c(OC)cc1I` (stereo not shown) [DOI], the “effect on the locomotor effects of PCP” value [1] is given as “potentiate the locomotor effects of PCP”.

With `COc1ccc(F)cc1C1CC1CNCC1CC1.Cl` (racemic) [(±)-17, 1-Cyclopropyl-N-[[2-(5-fluoro-2-methoxyphenyl)cyclopropyl]methyl]methanamine Hydrochloride] the EC50 [2] was greater than 300 nM and the “5-HT2C EC50” value [2] was “lack of activity”.

In the case of `COc1ccc(F)cc1[C@H]1C[C@@H]1CNCc1cccs1.Cl` [(+)-32, (+)-1-[(1S,2S)-2-(5-Fluoro-2-methoxyphenyl)cyclopropyl]-N-(thiophen-2-ylmethyl)methanamine Hydrochloride], the “β-arrestin recruitment activity” value [3] is reported as “no β-arrestin recruitment activity” and the “selectivity for 5-HT2C over 5-HT2B” value (5-HT2B [4]) is reported as “full selectivity”.

For `COc1ccc(F)cc1C1CC1CNCc1cccc2cc[nH]c12.Cl` (racemic) [(±)-38, 1-[2-(5-Fluoro-2-methoxyphenyl)cyclopropyl)-N-[(1H-indol-7-yl)methyl]methanamine Hydrochloride], the “5-HT2C EC50” value [2] was “entirely inactive”.

Work on `COc1ccc(F)cc1C1CC1CNCc1ccccc1C#N` (racemic) [(±)-24, 2-[[[[2-(5-Fluoro-2-methoxyphenyl)cyclopropyl]methyl]amino]methyl]benzonitrile Hydrochloride] yielded an Emax [2] of less than 35%.

For `COc1ccc(F)cc1C1CC1CNCc1ccccc1O.Cl` (racemic) [(±)-22, 2-[[[[2-(5-Fluoro-2-methoxyphenyl)cyclopropyl]methyl]amino]methyl]phenol Hydrochloride], the “selectivity for 5-HT2C over 5-HT2B” value (5-HT2B [4]) was “full selectivity”.

For `CNc1nc(Cc2ccccc2)cc2c1CCNCC2` [PF-04781340], the “selectivity over 5-HT2B” value (5-HT2B [5]) is listed as “about 160 fold”, the “5-HT2C Emax” value (5-HT2C [6]) is listed as 99% and the EC50 (5-HT2C [6]; read-out: 5-HT2C EC50) is listed as 9 nM.

For `COc1ccc(F)cc1C1CC1CNCc1ccccc1C(N)=O` (racemic) [(±)-25, 2-[[[[2-(5-Fluoro-2-methoxyphenyl)cyclopropyl]methyl]amino]methyl]benzamide Hydrochloride], the Emax [2] was less than 35%.

In the case of `CNc1nc(Cc2ccccc2)nc2c1CCNC[C@@H]2C` [PF-4479745], the “agonism at 5-HT2A” value (5-HT2A [7]) is listed as “no measurable agonism” and the “agonism at 5-HT2B” value (5-HT2B [5]) is listed as “no measurable agonism”.

With `C[C@H]1CNCCc2ccc(Cl)cc21` [lorcaserin, reference compound] the Emax ([3]; read-out: β-arrestin-2 Emax) was 97 ± 2.1%, the “effect on amphetamine-induced hyperactivity” value (C57BL/6J mice [8]; 3 mg/kg IP) was “reduced amphetamine-induced hyperactivity” and the baseline locomotion (C57BL/6J mice [9]; 3 mg/kg IP) was “decreased baseline locomotion”. The “effect on PCP-induced hyperactivity” value (C57BL/6J mice [10]; 3 mg/kg IP) was “no overall reduction in activity that was statistically significant”.

In the case of `COc1ccccc1CNC[C@H]1C[C@@H]1c1cc(F)ccc1OC.Cl` [(+)-19, (+)-1-[(1S,2S)-2-(5-Fluoro-2-methoxyphenyl)cyclopropyl]-N-(2-methoxybenzyl)methanamine Hydrochloride], the inhibition at 10 µM (CYP2D6) is reported as greater than 50%, the “effect on amphetamine-induced hyperactivity” value (C57BL/6J mice [8]; 10 mg/kg IP) is reported as “no significant effect” and the “effect on amphetamine-induced hyperactivity” value (C57BL/6J mice [8]; 20 mg/kg IP) is reported as “decreased the hyperlocomotion”. For the same compound, the baseline locomotion (C57BL/6J mice [9]; 10 mg/kg IP) was “had no effect”, the baseline locomotion (C57BL/6J mice [9]; 20 mg/kg IP) was “had no effect” and the “off-target affinity” value [11] was “None of the other screened targets were found to display any significant off-target affinity”. The inhibition at 10 µM (CYP3A4) was greater than 50%, the “effect on PCP-induced hyperactivity” value (C57BL/6J mice [10]; 10 mg/kg IP) was “increased locomotion” and the “effect on PCP-induced hyperactivity” value (C57BL/6J mice [10]; 20 mg/kg IP) was “had no effect on PCP-induced hyperlocomotion”.

`COc1ccc(F)cc1[C@@H]1C[C@H]1CNCc1ccccc1Cl` [(−)-27, (–)-N-(2-Chlorobenzyl)-1-[(1R,2R)-2-(5-fluoro-2-methoxyphenyl)cyclopropyl]methanamine Hydrochloride] gave an Emax (5-HT2A [12]) of 84 ± 3.9%.

For `CNC[C@H]1C[C@@H]1c1cc(F)ccc1OC.Cl` [(+)-15a, (+)-1-[(1S,2S)-2-(5-Fluoro-2-methoxyphenyl)cyclopropyl]-N-methylmethanamine Hydrochloride], the “β-arrestin recruitment activity” value [3] was “no β-arrestin recruitment activity” and the Ki (5-HT2C [13]) was 81 nM.

For `COc1ccccc1CN(C)CC1CC1c1cc(F)ccc1OC.Cl` (racemic) [(±)-28, 1-[2-(5-Fluoro-2-methoxyphenyl)cyclopropyl]-N-(2-methoxybenzyl)-N-methylmethanamine Hydrochloride], the “reduction of 5-HT2C potency compared to the parent compound (+)-19” value ([2]; racemate vs (+)-19) was 15 fold.
